The results in this text go back to ChEMBL document CHEMBL1833828, “Efficient conversion of a nonselective norepinephrin reuptake inhibitor into a dual muscarinic antagonist-β₂-agonist for the treatment of chronic obstructive pulmonary disease” (J Med Chem, 2011).

As usually defined, the Ki is a dissociation constant, usually derived from enzyme kinetics or from competition with a known ligand. One may read the logD as lipophilicity at a set pH, counting ionised and neutral species. A high value points to higher lipophilicity. Broadly, the EC50 is the concentration giving half of the maximal effect.

The target of series [1] is T1, Muscarinic acetylcholine receptor M3 (Homo sapiens, UniProt P20309). In words: Displacement of [3H]N-methylscopolamine from human M3 receptor.
Target sequence in this assay (P20309 whole entry): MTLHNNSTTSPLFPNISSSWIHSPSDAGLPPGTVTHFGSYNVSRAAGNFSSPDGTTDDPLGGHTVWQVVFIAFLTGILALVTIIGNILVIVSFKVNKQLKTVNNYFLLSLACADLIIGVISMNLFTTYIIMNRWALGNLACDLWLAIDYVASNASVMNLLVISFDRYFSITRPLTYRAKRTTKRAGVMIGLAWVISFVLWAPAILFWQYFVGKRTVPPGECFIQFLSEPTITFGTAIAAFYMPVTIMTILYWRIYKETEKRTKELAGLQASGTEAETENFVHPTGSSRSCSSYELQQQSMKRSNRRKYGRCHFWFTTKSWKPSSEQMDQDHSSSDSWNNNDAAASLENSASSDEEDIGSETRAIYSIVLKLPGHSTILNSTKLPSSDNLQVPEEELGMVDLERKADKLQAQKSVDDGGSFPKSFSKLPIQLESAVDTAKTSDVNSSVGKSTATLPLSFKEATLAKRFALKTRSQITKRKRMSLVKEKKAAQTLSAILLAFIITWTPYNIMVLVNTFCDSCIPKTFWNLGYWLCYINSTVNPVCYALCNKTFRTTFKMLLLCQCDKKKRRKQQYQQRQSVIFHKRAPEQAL
Series [2] can be described thus: Lipophilicity, log D of the compound. It is filed as physicochemical. Particulars: octanol/water.
Series [3] is described as follows: Metabolic stability in human liver microsomes. Particulars: read-out: Stability. It counts as ADME, Microsome. On the technique in general: Liver microsomes are a subcellular fraction often used to study metabolism.
Series [4] concerns the target T2, Beta-2 adrenergic receptor (Homo sapiens, UniProt P07550). In words: Agonist activity at human beta-2 adrenergic receptor expressed in CHO cells assessed as induction of intracellular cAMP production. It is filed as functional, cell-based. A general note: Cyclic AMP is a second messenger, typically raised through Gs and lowered through Gi signalling.
Target sequence in this assay (P07550 whole entry): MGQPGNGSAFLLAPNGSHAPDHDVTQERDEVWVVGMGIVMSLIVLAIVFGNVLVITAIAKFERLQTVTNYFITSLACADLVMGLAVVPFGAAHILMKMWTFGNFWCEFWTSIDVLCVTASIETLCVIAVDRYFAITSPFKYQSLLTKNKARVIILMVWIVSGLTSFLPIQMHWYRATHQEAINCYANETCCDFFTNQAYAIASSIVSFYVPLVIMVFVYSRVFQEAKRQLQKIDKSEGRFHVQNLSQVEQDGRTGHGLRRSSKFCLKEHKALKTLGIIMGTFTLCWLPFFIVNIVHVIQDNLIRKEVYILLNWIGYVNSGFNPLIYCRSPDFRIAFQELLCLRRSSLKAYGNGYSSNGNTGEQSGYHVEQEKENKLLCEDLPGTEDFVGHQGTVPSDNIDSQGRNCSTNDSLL
Series [5] addresses Beta-1 adrenergic receptor (Homo sapiens, UniProt P08588). As to the kind of experiment: Agonist activity at beta-1 adrenergic receptor. It is filed as functional.
Series [6] has as its target T1, Muscarinic acetylcholine receptor M3. In words: Antagonist activity at human cloned M3 receptor assessed as time taken to reach 50% of total [3H]NMS for solvent treated membranes by dilution-offset method. It counts as functional.
Target sequence in this assay (P20309 whole entry, looked up): as the sequence (P20309 whole entry) above
Series [7] concerns the target T2, Beta-2 adrenergic receptor. In words: Agonist activity at human cloned beta-2 adrenergic receptor expressed in CHO cells after compound wash-out relative to unwashed cells. It counts as functional, cell-based.
Target sequence in this assay (P07550 whole entry, looked up): as the sequence (P07550 whole entry) above
The species named for a further series is Cavia porcellus. As to the kind of experiment: Bronchodilatory action in guinea pig trachea assessed as inhibition of electrical field-stimulated acetylcholine release. It counts as functional.
Series [8] can be described thus: Bronchodilatory action against electrical field-stimulated constriction in guinea pig trachea assessed as time taken for the muscle tone at EC70 to recover by 50% of inhibition induced. It is filed as functional, Cavia porcellus.
A short description of series [9]: Bronchodilatory action in guinea pig trachea assessed as inhibition of electrical field-stimulated acetylcholine release in the presence of beta-2 adrenergic receptor antagonist propranolol. It counts as functional, tissue-based, Cavia porcellus.
The nature of series [10]: Bronchodilatory action against electrical field-stimulated constriction in guinea pig trachea assessed as time taken for the muscle tone at EC70 to recover by 50% of inhibition induced in the presence of beta-2 adrenergic receptor antagonist propranolol. It counts as functional, Cavia porcellus.
Series [11] in a line: Permeability across human Caco2 cells. It counts as ADME, cell-based. Particulars: Caco-2, read-out: permeability.
Series [12] has as its target T3, Sodium-dependent noradrenaline transporter (Homo sapiens, UniProt P23975). In words: Binding affinity at human NET receptor at 10 uM.
Series [13] has as its target T3, Sodium-dependent noradrenaline transporter. As to the kind of experiment: Displacement of [3H]nisoxetine from human NET receptor. (In a radioligand displacement assay an active substance lowers the binding of a labelled ligand.)

T3 sequence (P23975 whole entry): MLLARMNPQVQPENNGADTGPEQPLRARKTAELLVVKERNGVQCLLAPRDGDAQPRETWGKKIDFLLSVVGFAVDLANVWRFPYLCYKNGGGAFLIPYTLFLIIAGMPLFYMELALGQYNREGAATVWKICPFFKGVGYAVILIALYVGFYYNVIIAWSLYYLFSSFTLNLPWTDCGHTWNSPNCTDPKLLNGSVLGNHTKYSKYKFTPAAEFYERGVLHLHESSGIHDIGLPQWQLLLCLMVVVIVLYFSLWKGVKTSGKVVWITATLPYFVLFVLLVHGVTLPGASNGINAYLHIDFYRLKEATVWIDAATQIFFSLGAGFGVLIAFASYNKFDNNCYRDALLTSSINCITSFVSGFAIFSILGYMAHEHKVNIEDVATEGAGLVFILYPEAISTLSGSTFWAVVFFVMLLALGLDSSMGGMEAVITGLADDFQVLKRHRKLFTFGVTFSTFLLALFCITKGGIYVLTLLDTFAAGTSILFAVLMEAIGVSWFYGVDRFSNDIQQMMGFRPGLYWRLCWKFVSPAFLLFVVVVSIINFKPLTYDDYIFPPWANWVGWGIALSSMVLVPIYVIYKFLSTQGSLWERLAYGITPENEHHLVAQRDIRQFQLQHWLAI
Beta-1 adrenergic receptor, sequence (P08588 whole entry): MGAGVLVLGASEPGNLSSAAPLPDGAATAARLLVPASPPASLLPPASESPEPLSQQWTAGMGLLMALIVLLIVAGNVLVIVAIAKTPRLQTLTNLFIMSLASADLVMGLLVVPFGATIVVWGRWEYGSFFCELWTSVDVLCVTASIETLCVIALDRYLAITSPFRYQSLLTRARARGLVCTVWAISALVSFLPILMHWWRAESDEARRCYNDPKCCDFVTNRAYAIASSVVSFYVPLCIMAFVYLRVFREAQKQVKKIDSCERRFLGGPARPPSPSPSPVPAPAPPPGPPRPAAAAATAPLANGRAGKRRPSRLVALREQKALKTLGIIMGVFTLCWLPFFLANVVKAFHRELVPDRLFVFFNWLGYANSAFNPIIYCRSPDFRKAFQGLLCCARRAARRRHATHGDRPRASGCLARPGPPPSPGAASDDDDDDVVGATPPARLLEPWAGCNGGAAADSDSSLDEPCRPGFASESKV

In series [1], `Oc1cccc(F)c1-n1nc(OC2CCNCC2)c2ccccc21` registered an inhibition constant (Ki) of 10 nM. Besides, in series [2], the logD was 0.6. For the same compound, in series [3], the microsomal CLint is less than 8 µL/min/mg.

The compound `O=c1ccc2c([C@@H](O)CNCCCCCCCCCN3CCC(Oc4nn(-c5c(O)cccc5F)c5c4CCCC5)CC3)ccc(O)c2[nH]1` had a Ki in series [1] of 2.2 nM. The compound also returned a logD in series [2] of 2.4. In [3], the microsomal CLint was determined as 25 µL/min/mg. The EC50 in [4] is 14 nM; in series [5], greater than 10000 nM; in the series filed under Cavia porcellus, 28 nM; in series [9] it was 27 nM. Also, the TIME in series [6] is less than 0.267 h. In series [7], this compound gave a fold change (FC) of 1.5. Also, the Time in [8] and in series [10] was greater than 16 h each time. Also, the Papp in series [11] is less than 1 ×10⁻⁶ cm/s.

Turning to `Cc1ccc(O)c([C@H](CCN(C(C)C)C(C)C)c2ccccc2)c1` [TOLTERODINE], the log distribution coefficient (logD) in [2] came to 1.8. In addition, the microsomal CLint in [3] is less than 8 µL/min/mg. Further, in series [12], the Activity was 15%.

In the case of `Fc1cccc(F)c1-n1nc(OC2CCNCC2)c2ccccc21`, the results for the Ki in series [1] and in series [13] were 49 nM and 6.8 nM, respectively. The compound further displayed a logD in series [2] of 1.4. For the same compound, the microsomal CLint in series [3] was less than 8 µL/min/mg.

With `Oc1cccc(F)c1-n1nc(OC2CCNCC2)c2c1CCCC2`, the Ki stood at 2.5 nM in [1] and 2900 nM in [13]. This compound returned a logD in series [2] of 0.3. In series [3], the microsomal CLint is less than 8 µL/min/mg.
